Measurements from patent publication US20260068882A1, “ARTHROPOD CONTROLLING COMPOSITION” (Firmenich SA, priority 2019, published 2026).
Counter-ions that a name gives are not always drawn. Like-named read-outs stand apart in the source and are kept apart here.

How the values were obtained:
Aedes aegypti = test: In vitro Warm Body assay, mosquitoes landing on treated warm body; type: in vivo
Outline: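 Adapted Warm Body assay with host-seeking, non-blood-fed, sugar-fed A. aegypti Rockefeller females aged 5–10 days (10–12 days in one set); cages held 30 (or 25) females at 150 lux. Landings were counted automatically. Doses in ethanol were 0.0016%, 0.04% and 1% in triplicate, or a single replicate across 0.0016–1%.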

Ixodes ricinus = test: In vitro Warm Plate Assay for ticks; type: in vivo; conditions: for pest or weed control at 0.0016 % / pest or weed control at 0.0053 % / pest or weed control at 0.008 % / pest or weed control at 0.0119 % / pest or weed control at 0.0178 % / pest or weed control at 0.0267 % / pest or weed control at 0.04 % / pest or weed control at 0.0598 % / pest or weed control at 0.089 % / pest or weed control at 0.2 % / pest or weed control at 0.447 % / pest or weed control at 1 %: Ixodes ricinus, read-out: percentage of ticks affected on the Warm Plate
Outline: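 Repellency against last-stage Ixodes ricinus nymphs in an in vitro warm plate assay, compounds diluted in ethanol at 0.4 and 10 mg/mL, 0.0016% to 1%, or 20% (w/w). Ticks walking down or falling from the treated plate scored as affected, walking up as unaffected; groups of 12 ticks, n=2-5.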

[1] = 0.0016% in ethanol (Table 7, one replicate)
[2] = 0.008% in ethanol (Table 7, one replicate)
[3] = 0.04% in ethanol (Table 7, one replicate)
[4] = 0.2% in ethanol (Table 7, one replicate)
[5] = 1% in ethanol (Table 7, one replicate)

CC1CCC(C(C)(C)O)C(O)C1 (stereo not shown) [PMD, 2-(2-hydroxypropan-2-yl)-5-methylcyclohexan-1-ol, reference compound]
reduction of landing (Aedes aegypti; 0.0016% (Table 7)): 11%
number of mosquitoes landed on the Warm Body (Aedes aegypti; [1]): 58
number of mosquitoes landed on the Warm Body (Aedes aegypti; [2]): 40
number of mosquitoes landed on the Warm Body (Aedes aegypti; 0.0119% in ethanol (Table 7, one replicate)): 36
number of mosquitoes landed on the Warm Body (Aedes aegypti; [3]): 8
number of mosquitoes landed on the Warm Body (Aedes aegypti; 0.0598% in ethanol (Table 7, one replicate)): 1
number of mosquitoes landed on the Warm Body (Aedes aegypti; [4]): 1
number of mosquitoes landed on the Warm Body (Aedes aegypti; [5]): 0
percentage of ticks affected overtime (Ixodes ricinus; 20% (w/w) in ethanol, 0.25 h post-application): 42%
percentage of ticks affected overtime (Ixodes ricinus; 20% (w/w) in ethanol, 0.5 h post-application): 42%
percentage of ticks affected overtime (Ixodes ricinus; 20% (w/w) in ethanol, 1 h post-application): 83%
percentage of ticks affected overtime (Ixodes ricinus; 20% (w/w) in ethanol, 2 h post-application): 50%
percentage of ticks affected overtime (Ixodes ricinus; 20% (w/w) in ethanol, 4 h post-application): 8%
percentage of ticks affected overtime (Ixodes ricinus; 20% (w/w) in ethanol, 6 h post-application): 17%
ticks' repellency overtime (in words) (Ixodes ricinus; 20% (w/w) in ethanol, Table 14): not efficient during these first time points
pest or weed control at 0.0016 % (Ixodes ricinus; 0.0016% in ethanol (Table 12)): 0%
pest or weed control at 0.0053 % (Ixodes ricinus; 0.0053% in ethanol (Table 12)): 12%
pest or weed control at 0.008 % (Ixodes ricinus; 0.008% in ethanol (Table 12)): 4%
pest or weed control at 0.0119 % (Ixodes ricinus; 0.0119% in ethanol (Table 12)): 4%
pest or weed control at 0.0178 % (Ixodes ricinus; 0.0178% in ethanol (Table 12)): 4%
pest or weed control at 0.0267 % (Ixodes ricinus; 0.0267% in ethanol (Table 12)): 0%
pest or weed control at 0.04 % (Ixodes ricinus; 0.04% in ethanol (Table 12)): 12%
pest or weed control at 0.0598 % (Ixodes ricinus; 0.0598% in ethanol (Table 12)): 19%
pest or weed control at 0.089 % (Ixodes ricinus; 0.089% in ethanol (Table 12)): 42%
pest or weed control at 0.2 % (Ixodes ricinus; 0.2% in ethanol (Table 12)): 84%
pest or weed control at 0.447 % (Ixodes ricinus; 0.447% in ethanol (Table 12)): 96%
pest or weed control at 1 % (Ixodes ricinus; 1% in ethanol (Table 12)): 96%
ticks affected (Ixodes ricinus; dose of 0.598%): 19%

Cc1ccc2c(c1)CCC(C)(CO)C2 (racemic) [(+−)-(2,6-dimethyl-1,2,3,4-tetrahydro-2-naphthalenyl)methanol]
number of mosquitoes landed on the Warm Body (Aedes aegypti; 0.0016% in ethanol (Table 6)): 57
number of mosquitoes landed on the Warm Body (Aedes aegypti; 0.04% in ethanol (Table 6)): 65
number of mosquitoes landed on the Warm Body (Aedes aegypti; 1% in ethanol (Table 6)): 3
pest or weed control at 0.04 % (Ixodes ricinus; 0.04% (Table 10)): 8%
pest or weed control at 0.2 % (Ixodes ricinus; 0.2% (Table 10)): 71%
pest or weed control at 1 % (Ixodes ricinus; 1% (Table 10)): 100%

CCCCC[C@@H]1C(=O)CC[C@@H]1CC(=O)OC [ingredient #4, (+)-methyl (1R)-cis-3-oxo-2-pentyl-1-cyclopentaneacetate, reference compound]
number of mosquitoes landed on the Warm Body (Aedes aegypti; [1]): 66
number of mosquitoes landed on the Warm Body (Aedes aegypti; [2]): 53
number of mosquitoes landed on the Warm Body (Aedes aegypti; [3]): 16
number of mosquitoes landed on the Warm Body (Aedes aegypti; [4]): 17
number of mosquitoes landed on the Warm Body (Aedes aegypti; [5]): 4
pest or weed control at 0.0016 % (Ixodes ricinus): 15%
pest or weed control at 0.0053 % (Ixodes ricinus): 17%
pest or weed control at 0.008 % (Ixodes ricinus): 8%
pest or weed control at 0.0119 % (Ixodes ricinus): 0%
pest or weed control at 0.0178 % (Ixodes ricinus): 33%
pest or weed control at 0.0267 % (Ixodes ricinus): 36%
pest or weed control at 0.04 % (Ixodes ricinus): 92%
pest or weed control at 0.0598 % (Ixodes ricinus): 100%
pest or weed control at 0.089 % (Ixodes ricinus): 100%
pest or weed control at 0.2 % (Ixodes ricinus): 100%
pest or weed control at 0.447 % (Ixodes ricinus): 92%
pest or weed control at 1 % (Ixodes ricinus): 100%

Cc1ccc2c(c1)[C@H]1OCOC[C@H]1C2 (racemic) [(4aRS,9bSR)-8-methyl-4,4a,5,9b-tetrahydroindeno[1,2-d][1,3]dioxin]
number of mosquitoes landed on the Warm Body (Aedes aegypti; 0.0016% in ethanol (Table 6)): 103
number of mosquitoes landed on the Warm Body (Aedes aegypti; 0.04% in ethanol (Table 6)): 8
number of mosquitoes landed on the Warm Body (Aedes aegypti; 1% in ethanol (Table 6)): 8
pest or weed control at 0.04 % (Ixodes ricinus; 0.04% (Table 10)): 8%
pest or weed control at 0.2 % (Ixodes ricinus; 0.2% (Table 10)): 33%
pest or weed control at 1 % (Ixodes ricinus; 1% (Table 10)): 85%

Cc1ccc2c(c1)CC(C)(COC=O)C2 (stereo not shown) [(2,5-dimethyl-2-indanyl)methyl formate]
pest or weed control at 0.0016 % (Aedes aegypti; Aedes aegypti, read-out: decrease of landings): 4 to 29%
pest or weed control at 0.0016 % (Ixodes ricinus; 0.0016% (Table 11)): 0%
pest or weed control at 0.04 % (Ixodes ricinus; 0.04% (Table 11)): 7%
pest or weed control at 1 % (Ixodes ricinus; 1% (Table 11)): 85%
